Tested on: 171881-019-R-J1-PDC tumor spheroids, viability
Experiment: Anticancer human tumor 171881-019-R-J1-PDC patient-derived invasive breast carcinoma cell line growth inhibition [GQUAD]
Conditions: spheroids with HUVEC and MSC; for IC50: curve of first compound; for viability, T/C: stronger effect = lower value
Excerpt: DNA G-quadruplex Stabilizer Agents in Combinations in Complex Spheroids
A high-throughput screen of multi-cell type tumor spheroids was designed to identify active combinations of DNA G-quadruplex stabilizer agents and targeted small molecules. Complex spheroids include a stromal component modeled by human endothelial cells (HUVEC) and fibroblasts modeled by human mesenchymal stem cells (MSCs). The concentration ranges selected for each drug and investigational agent were based upon clinically achievable concentrations if the clinical Cmax of the agent was known.
Compounds. The drugs and investigational agents: pidnarulex (CX-5461; NSC782164), APTO-253 (NSC789042), BRACO-19 (NSC847499), peposertib (NSC802822), ceralasertib (NSC780249), elimusertib (NSC800525), camonsertib (NSC841442), AZD-1390 (NSC803789), olaparib (NSC753686), talazoparib (NSC767125), ART-558 (NSC835418), sotorasib (NSC818433), MRTX-1133 (NSC836407), SN-38 (NSC673596), topotecan (NSC609699), etoposide (NSC141540), doxorubicin (NSC123127), gemcitabine (NSC613327), 5-fluorouracil (NSC19893), paclitaxel (NSC125973), vemurafenib (NSC761431), panobinostat (NSC761190), R-306465 (JNJ-16241199; NSC773264), adavosertib (NSC754352), TP-3654 (NSC805149), carboplatin (NSC241240), KSQ-4279 (NSC840948), and staurosporine (NSC755774) were obtained from the National Cancer Institute (NCI) Developmental Therapeutics Program Chemical Repository (34). The FDA-approved anticancer drug set is available from the NCI Developmental Therapeutics Program. […] The stock solutions were prepared in dimethyl sulfoxide (DMSO, Sigma-Aldrich, St. Louis, MO, cat. D2650) at 800-fold the tested concentration and stored at -70 degrees C prior to their use. All drugs and investigational agents were tested over a range starting from a high concentration at or near the clinical Cmax and decreasing in half-log increments. If the clinical Cmax for an agent had not been determined, the highest concentration tested was 10 microM.
2.3 Cell Culture. All cells were maintained in an incubator at 37 degrees C and 5% CO2 with 95% humidity. The PDC lines were cultured according to standard operating procedures established by the NCI PDMR. All PDCs were thawed and cultured in Matrigel-coated flasks prepared with a working solution of 1X Ham's F-12 nutrient mix, without supplementation (Invitrogen, cat. 11765054), 100 U/mL penicillin-streptomycin (Invitrogen, cat. 15140122), and 2.5% Matrigel (Corning Inc., cat. 354248) for the first three passages. The 857933-349-R-J2-PDC line was cultured in 6C/Colon 1B media, which includes advanced DMEM/F-12 (Thermo Fisher Scientific, cat. 12634028), 10 mM HEPES (Thermo Fisher Scientific, cat. 15630080), 1X GlutaMAX supplement (Thermo Fisher Scientific, cat. 35050061), 0.1 mg/mL primocin (InvivoGen, cat. ant-pm-2), 10% defined fetal bovine serum, heat inactivated (HyClone Laboratories Inc., cat. SH30070.03HI), 50% L-WRN conditioned media (ATCC, cat. CRL-3276), 1.25 mM N-Acetyl-L-cysteine (Sigma-Aldrich, cat. A9165), 10 mM nicotinamide (Sigma-Aldrich, cat. N0636), 1X B-27 supplement (Thermo Fisher Scientific, cat. 17504044), 1X N-2 supplement (Thermo Fisher Scientific, cat. 17502048), 10 microM Y-27632 dihydrochloride (Tocris Bioscience, cat. 1254), and 50 ng/mL human EGF recombinant protein (Thermo Fisher Scientific, cat. PHG0311). The 485176-168-R4-J1-PDC line was cultured in Panc media, which includes all 6C/Colon 1B media components plus 100 ng/mL human FGF-10 (Thermo Fisher Scientific, cat. 100-26), 500 nM SB-431542 (Selleckchem, cat. S1067), and gastrin (Tocris, cat. 3006).
[…]

[1] = second compound 0.0316 µM, first compound 0.0316 µM
[2] = second compound 0.0316 µM, first compound 0.316 µM
[3] = second compound 0.1 µM, first compound 0.0316 µM
[4] = second compound 0.1 µM, first compound 0.316 µM
[5] = second compound 0.316 µM, first compound 0.0316 µM
[6] = second compound 0.316 µM, first compound 0.316 µM
[7] = second compound 1 µM, first compound 0.0316 µM
[8] = second compound 1 µM, first compound 0.316 µM
[9] = second compound 3.16 µM, first compound 0.0316 µM
[10] = second compound 3.16 µM, first compound 0.316 µM
[11] = second compound 10 µM, first compound 0.0316 µM
[12] = second compound 10 µM, first compound 0.316 µM
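Note: spheroids exposed to compounds for 7 days.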
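Throughout, for viability, T/C: 100% = DMSO vehicle control viability.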

SMILES: Cc1[nH]c2ccccc2c1CCNCc1ccc(/C=C/C(=O)NO)cc1 + Cc1[nH]c2ccc(F)cc2c1-c1nc2c3cccnc3c3ncccc3c2[nH]1
- IC50 (second compound 0.0316 µM): 59.6 nM
- IC50 (second compound 0.1 µM): 64.8 nM
- IC50 (second compound 0.316 µM): 49.1 nM
- IC50 (second compound 1 µM): 32.5 nM
- IC50 (second compound 3.16 µM): < 0.999 nM
- IC50 (second compound 10 µM): < 0.999 nM
- viability, T/C (second compound 0.0316 µM, first compound 0.000999 µM): 109%
- viability, T/C (second compound 0.0316 µM, first compound 0.00316 µM): 107%
- viability, T/C (second compound 0.0316 µM, first compound 0.00999 µM): 94.6%
- viability, T/C [1]: 84.6%
- viability, T/C (second compound 0.0316 µM, first compound 0.0999 µM): 22.5%
- viability, T/C [2]: 0.66%
- viability, T/C (second compound 0.1 µM, first compound 0.000999 µM): 90.7%
- viability, T/C (second compound 0.1 µM, first compound 0.00316 µM): 98.2%
- viability, T/C (second compound 0.1 µM, first compound 0.00999 µM): 99.5%
- viability, T/C [3]: 91.7%
- viability, T/C (second compound 0.1 µM, first compound 0.0999 µM): 24.8%
- viability, T/C [4]: 0.58%
- viability, T/C (second compound 0.316 µM, first compound 0.000999 µM): 91.7%
- viability, T/C (second compound 0.316 µM, first compound 0.00316 µM): 72.2%
- viability, T/C (second compound 0.316 µM, first compound 0.00999 µM): 85.5%
- viability, T/C [5]: 63.3%
- viability, T/C (second compound 0.316 µM, first compound 0.0999 µM): 27%
- viability, T/C [6]: 0.34%
- viability, T/C (second compound 1 µM, first compound 0.000999 µM): 66.8%
- viability, T/C (second compound 1 µM, first compound 0.00316 µM): 55.9%
- viability, T/C (second compound 1 µM, first compound 0.00999 µM): 63.1%
- viability, T/C [7]: 50.3%
- viability, T/C (second compound 1 µM, first compound 0.0999 µM): 20.4%
- viability, T/C [8]: 0.35%
- viability, T/C (second compound 3.16 µM, first compound 0.000999 µM): 9.69%
- viability, T/C (second compound 3.16 µM, first compound 0.00316 µM): 7.8%
- viability, T/C (second compound 3.16 µM, first compound 0.00999 µM): 7.35%
- viability, T/C [9]: 5.79%
- viability, T/C (second compound 3.16 µM, first compound 0.0999 µM): 1.55%
- viability, T/C [10]: 0.52%
- viability, T/C (second compound 10 µM, first compound 0.000999 µM): 43.6%
- viability, T/C (second compound 10 µM, first compound 0.00316 µM): 46.2%
- viability, T/C (second compound 10 µM, first compound 0.00999 µM): 41.6%
- viability, T/C [11]: 46.7%
- viability, T/C (second compound 10 µM, first compound 0.0999 µM): 13.9%
- viability, T/C [12]: 0.41%

SMILES: Nc1ccn(C2OC(CO)C(O)C2(F)F)c(=O)n1 (centres undefined) + Cc1[nH]c2ccc(F)cc2c1-c1nc2c3cccnc3c3ncccc3c2[nH]1
- IC50 (second compound 0.0316 µM): < 31.6 nM
- IC50 (second compound 0.1 µM): < 31.6 nM
- IC50 (second compound 0.316 µM): < 31.6 nM
- IC50 (second compound 1 µM): < 31.6 nM
- IC50 (second compound 3.16 µM): < 31.6 nM
- IC50 (second compound 10 µM): < 31.6 nM
- viability, T/C [1]: 25.9%
- viability, T/C (second compound 0.0316 µM, first compound 0.1 µM): 28.6%
- viability, T/C [2]: 39.9%
- viability, T/C (second compound 0.0316 µM, first compound 1 µM): 38.6%
- viability, T/C (second compound 0.0316 µM, first compound 3.16 µM): 36.5%
- viability, T/C (second compound 0.0316 µM, first compound 10 µM): 31.6%
- viability, T/C [3]: 25.8%
- viability, T/C (second compound 0.1 µM, first compound 0.1 µM): 30.9%
- viability, T/C [4]: 38.6%
- viability, T/C (second compound 0.1 µM, first compound 1 µM): 41.2%
- viability, T/C (second compound 0.1 µM, first compound 3.16 µM): 35.9%
- viability, T/C (second compound 0.1 µM, first compound 10 µM): 31.3%
- viability, T/C [5]: 26.7%
- viability, T/C (second compound 0.316 µM, first compound 0.1 µM): 29.6%
- viability, T/C [6]: 35.7%
- viability, T/C (second compound 0.316 µM, first compound 1 µM): 35.2%
- viability, T/C (second compound 0.316 µM, first compound 3.16 µM): 38.6%
- viability, T/C (second compound 0.316 µM, first compound 10 µM): 31.7%
- viability, T/C [7]: 26.7%
- viability, T/C (second compound 1 µM, first compound 0.1 µM): 28.6%
- viability, T/C [8]: 38%
- viability, T/C (second compound 1 µM, first compound 1 µM): 35.8%
- viability, T/C (second compound 1 µM, first compound 3.16 µM): 39.1%
- viability, T/C (second compound 1 µM, first compound 10 µM): 31.1%
- viability, T/C [9]: 18.5%
- viability, T/C (second compound 3.16 µM, first compound 0.1 µM): 14%
- viability, T/C [10]: 19.1%
- viability, T/C (second compound 3.16 µM, first compound 1 µM): 16.8%
- viability, T/C (second compound 3.16 µM, first compound 3.16 µM): 19.9%
- viability, T/C (second compound 3.16 µM, first compound 10 µM): 16.2%
- viability, T/C [11]: 20.3%
- viability, T/C (second compound 10 µM, first compound 0.1 µM): 23.7%
- viability, T/C [12]: 27.2%
- viability, T/C (second compound 10 µM, first compound 1 µM): 28.6%
- viability, T/C (second compound 10 µM, first compound 3.16 µM): 26.6%
- viability, T/C (second compound 10 µM, first compound 10 µM): 26.1%
